{"source": "patent US20250114337A1", "about": "“METHODS FOR VASCULAR REGENERATION AND WOUND TREATMENT” (THE METHODIST HOSPITAL, priority 2022, published 2025)", "key": {"BJ fibroblasts": {"test_system": "BJ fibroblasts", "assay": "in vitro transdifferentiation of fibroblasts to induced endothelial cells (iECs)", "assay_type": "cell-based, human", "details": "fibroblasts exposed during transdifferentiation protocol", "source_text": "Innate immune activation is required for transdifferentiation. […] 131 (3): p. 300-9). iECs generated from this protocol manifest high fidelity for endothelial lineage. They incorporate acetylated LDL (FIG. 2B), form tubular networks (FIG. 2C), have similar transcriptomes as genuine endothelial cells, and increase capillary density and perfusion when injected into the ischemic hindlimb of the mouse (FIG. 2D) (Sayed, N., et al., Circulation, 2015. 131 (3): p. 300-9). This protocol can be utilized to study the role of O-GlcNAcylation in transdifferentiation in vitro.\nO-GlcNAcylation is required for in vitro transdifferentiation. To define if the elevation of O-GlcNAcylation is required for transdifferentiation, fibroblasts were exposed to Thiamet G (TMG) (an OGA inhibitor that enhances O-GlcNAcylation) or DON (an inhibitor for GFAT that acts upstream in the hexosamine biosynthesis pathway and reduces O-GlcNAcylation). The number of iECs generated during transdifferentiation is increased when fibroblasts are exposed to TMG and decreased when exposed to DON (FIG. 5A). […] The role of O-GlcNAcylation of specific epigenetic regulars e.g., HIRA during transdifferentiation can also be addressed.\nTo define if the elevation of O-GlcNAcylation is required for transdifferentiation, inhibitors of O-GlcNAcylation including OSMI (an inhibitor for OGT) and DON (an inhibitor for GFAT that acts upstream in the hexosamine biosynthesis pathway and reduces O-GlcNAcylation) or an activator of O-GlcNAcylation. Thiamet G (TMG) (an OGA inhibitor that enhances O-GlcNAcylation), were delivered to BJ fibroblasts undergoing transdifferentiation. The number of CD31 expressing iECs generated during transdifferentiation decreases when exposed to OSMI or DON and increases when fibroblasts are exposed to TMG (FIG. 17B). Then OGT or OGA were knocked down using shRNA in the BJ fibroblasts (FIG. 17C) and performed transdifferentiation protocol in vitro."}, "[1]": {"test_system": "ischemic hindlimb mice model", "assay": "hindlimb ischemia recovery in WT C57BL/6 mice, laser doppler imaging", "assay_type": "in vivo, mouse", "details": "OSMI4 10 mg/kg 0, 1, 2 days post-surgery; younger mice (8 to 12 weeks)", "experimental": "O-GlcNAcylation manipulations regulated recovery from tissue ischemia. To determine if the change in O-GlcNAcylation can modulate limb ischemia recovery, and contributes to vascular recovery, WT C57BL/6 mice were treated with the O-GlcNAcylation inhibitor, OSMI4, or O-GlcNAcylation enhancer, TMG 0, 1, 2 days post-surgery. Age is an important factor that determines recovery, and younger mice are known to have a more robust angiogenic response as compared with older mice. Accordingly, younger mice (between 8 to 12 weeks) were used to assess the impairment of angiogenesis by OSMI (which reduces O-GlcNAcylation). Older mice (around 20 weeks) were used to assess the enhancement of angiogenesis by TMG (which increases O-GlcNAcylation). […] It will be determined whether this beneficial effect is mediated by increased DNA accessibility and enhanced transdifferentiation.\nTo determine if O-GlcNAcylation manipulations can modulate the overall effect of vascular recovery from limb ischemia. WT C57BL/6 mice were treated with the O-GlcNAcylation inhibitor. OSMI4 (10 mg/kg), or O-GlcNAcylation enhancer. TMG (10 mg/kg) 0, 1, 2 days post-surgery (FIG. 19A)."}, "H3.3 deposition": {"test_system": "H3.3 deposition", "assay": "H3.3-SNAP tagging, quench-chase-pulse TMR-Star labeling", "assay_type": "cell-based", "details": "Poly I:C + OSMI", "source_text": "To identify the role of O-GlcNAcylation of histone variant h3.3 chaperone protein, HIRA, on transdifferentiation. The effects of O-GlcNAcylation on proteins that may be involved in the epigenetic regulation of transdifferentiation can be assessed. Nucleosome turnover is known to be tightly interrelated with DNA accessibility, and histone variant h3.3 is a hallmark of regulatory regions in the mammalian genome and is required to establish open chromatins. HIRA is the chaperone for h3.3, it forms a complex with other subunits, including ASF1. UBN, and CABIN, and is responsible for h3.3 deposition on the chromatin. OGT interacts with and O-GlcNAcylates HIRA, both of which are critical for the formation of the HIRA-h3.3 complex and h3.3 deposition and its dependent gene activation. […] The role of HIRA in transdifferentiation with fibroblasts that have HIRA knocked down or overexpressed can be determined. […] Thereafter, the de novo deposited SNAP-h3.3 will be pulse-labeled with the TMR-Star, which is a readily detectable and quantifiable red-fluorescent substrate. […]\nTo test whether innate immune activation enhances the H3.3 deposition in the chromatin, the H3.3-SNAP tagging system was generated where the newly synthesized H3.3 will be detected by fluorescent TMR-Star labeling with quench-chase-pulse strategy."}}, "note": "Entries after “also recorded” stand apart in the source; their conditions may differ.", "data": [{"smiles": "CCOC(=O)CN(Cc1cccs1)C(=O)[C@H](NS(=O)(=O)c1cc2ccc(=O)[nH]c2cc1Cl)c1ccccc1OC", "note": "[OSMI]", "values": [{"measurement": "iEC yield (number of CD31 expressing iECs generated during transdifferentiation)", "setting": "BJ fibroblasts", "value": "decreases; also recorded: impair"}, {"measurement": "recovery of blood flow post femoral artery ligation (revascularization)", "setting": "[1]", "value": "impaired recovery; also recorded: impairs"}, {"measurement": "Poly I:C-enhanced H3.3 deposition", "setting": "H3.3 deposition", "value": "impaired"}]}]}
